According to the supplement of paper PMC10307832:

Legend:
Test in all cases: relative viability (nuclei count vs DMSO), 5 days (fraction); higher = more cells survive
NCI-H1975 = test system: NCI-H1975
Outline: (§1)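 One day after seeding in 1536-well plates, lung cancer cell lines were dosed by pin tool. Dosing was either single-drug or a fixed anchor-drug dose plus five library-drug doses (not always all listed) in √10 steps. After 5 days, nuclei were stained in one fix-and-stain step and counted on 4× images, and relative viability is the nuclei count of treated wells over that of vehicle wells, given as the median of duplicate plates.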

NCI-H647 = test system: NCI-H647
Outline: as §1

SW 1573 = test system: SW 1573
Outline: as §1

NCI-H1755 = test system: NCI-H1755
Outline: as §1

NCI-H2342 = test system: NCI-H2342
Outline: as §1

A-427 = test system: A-427
Outline: as §1

NCI-H2228 = test system: NCI-H2228
Outline: as §1

NCI-H522 = test system: NCI-H522
Outline: as §1

NCI-H1915 = test system: NCI-H1915
Outline: as §1

HCC-78 = test system: HCC-78
Outline: as §1

RERF-LC-KJ = test system: RERF-LC-KJ
Outline: as §1

HCC-15 = test system: HCC-15
Outline: as §1

HOP-62 = test system: HOP-62
Outline: as §1

SK-LU-1 = test system: SK-LU-1
Outline: as §1

NCI-H2347 = test system: NCI-H2347
Outline: as §1

LXF-289 = test system: LXF-289
Outline: as §1

PC-3 [JPC-3] = test system: PC-3 [JPC-3]
Outline: as §1

NCI-H2126 = test system: NCI-H2126
Outline: as §1

LC-2-ad = test system: LC-2-ad
Outline: as §1

NCI-H1734 = test system: NCI-H1734
Outline: as §1

NCI-H358 = test system: NCI-H358
Outline: as §1

## O=c1cc(N2CCOCC2)oc2c(-c3cccc4c3sc3ccccc34)cccc12 + Cc1cc(Nc2cc(N3CCN(C)CC3)nc(Sc3ccc(NC(=O)C4CC4)cc3)n2)n[nH]1 [Tozasertib] (partner 0.1 µM)
NCI-H1975; first compound 0.01 µM
  relative viability: 0.692
NCI-H1975; first compound 0.03162 µM
  relative viability: 0.657
NCI-H1975; first compound 0.1 µM
  relative viability: 0.958
NCI-H1975; first compound 0.3162 µM
  relative viability: 0.746
NCI-H1975; first compound 1 µM
  relative viability: 0.76
NCI-H647; first compound 0.01 µM
  relative viability: 0.369
NCI-H647; first compound 0.03162 µM
  relative viability: 0.32
NCI-H647; first compound 0.1 µM
  relative viability: 0.262
NCI-H647; first compound 0.3162 µM
  relative viability: 0.295
NCI-H647; first compound 1 µM
  relative viability: 0.226
SW 1573; first compound 0.01 µM
  relative viability: 0.198
SW 1573; first compound 0.03162 µM
  relative viability: 0.159
SW 1573; first compound 0.1 µM
  relative viability: 0.164
SW 1573; first compound 0.3162 µM
  relative viability: 0.157
SW 1573; first compound 1 µM
  relative viability: 0.166
NCI-H1755; first compound 0.01 µM
  relative viability: 0.592
NCI-H1755; first compound 0.03162 µM
  relative viability: 0.669
NCI-H1755; first compound 0.1 µM
  relative viability: 0.693
NCI-H1755; first compound 0.3162 µM
  relative viability: 0.539
NCI-H1755; first compound 1 µM
  relative viability: 0.542
NCI-H2342; first compound 0.01 µM
  relative viability: 0.643
NCI-H2342; first compound 0.03162 µM
  relative viability: 0.504
NCI-H2342; first compound 0.1 µM
  relative viability: 0.535
NCI-H2342; first compound 0.3162 µM
  relative viability: 0.555
NCI-H2342; first compound 1 µM
  relative viability: 0.469
A-427; first compound 0.01 µM
  relative viability: 0.232
A-427; first compound 0.03162 µM
  relative viability: 0.201
A-427; first compound 0.1 µM
  relative viability: 0.212
A-427; first compound 0.3162 µM
  relative viability: 0.223
A-427; first compound 1 µM
  relative viability: 0.212
NCI-H2228; first compound 0.01 µM
  relative viability: 0.331
NCI-H2228; first compound 0.03162 µM
  relative viability: 0.267
NCI-H2228; first compound 0.1 µM
  relative viability: 0.217
NCI-H2228; first compound 0.3162 µM
  relative viability: 0.224
NCI-H2228; first compound 1 µM
  relative viability: 0.228
NCI-H522; first compound 0.01 µM
  relative viability: 0.548
NCI-H522; first compound 0.03162 µM
  relative viability: 0.607
NCI-H522; first compound 0.1 µM
  relative viability: 0.594
NCI-H522; first compound 0.3162 µM
  relative viability: 0.551
NCI-H522; first compound 1 µM
  relative viability: 0.61
NCI-H1915; first compound 0.01 µM
  relative viability: 0.419
NCI-H1915; first compound 0.03162 µM
  relative viability: 0.438
NCI-H1915; first compound 0.1 µM
  relative viability: 0.485
NCI-H1915; first compound 0.3162 µM
  relative viability: 0.456
NCI-H1915; first compound 1 µM
  relative viability: 0.422
HCC-78; first compound 0.01 µM
  relative viability: 0.417
HCC-78; first compound 0.03162 µM
  relative viability: 0.359
HCC-78; first compound 0.1 µM
  relative viability: 0.417
HCC-78; first compound 0.3162 µM
  relative viability: 0.41
HCC-78; first compound 1 µM
  relative viability: 0.452
RERF-LC-KJ; first compound 0.01 µM
  relative viability: 0.482
RERF-LC-KJ; first compound 0.03162 µM
  relative viability: 0.576
RERF-LC-KJ; first compound 0.1 µM
  relative viability: 0.496
RERF-LC-KJ; first compound 0.3162 µM
  relative viability: 0.429
RERF-LC-KJ; first compound 1 µM
  relative viability: 0.522
HCC-15; first compound 0.01 µM
  relative viability: 0.413
HCC-15; first compound 0.03162 µM
  relative viability: 0.379
HCC-15; first compound 0.1 µM
  relative viability: 0.433
HCC-15; first compound 0.3162 µM
  relative viability: 0.33
HCC-15; first compound 1 µM
  relative viability: 0.448
HOP-62; first compound 0.01 µM
  relative viability: 0.336
HOP-62; first compound 0.03162 µM
  relative viability: 0.315
HOP-62; first compound 0.1 µM
  relative viability: 0.402
HOP-62; first compound 0.3162 µM
  relative viability: 0.325
HOP-62; first compound 1 µM
  relative viability: 0.382
SK-LU-1; first compound 0.01 µM
  relative viability: 0.314
SK-LU-1; first compound 0.03162 µM
  relative viability: 0.298
SK-LU-1; first compound 0.1 µM
  relative viability: 0.393
SK-LU-1; first compound 0.3162 µM
  relative viability: 0.308
SK-LU-1; first compound 1 µM
  relative viability: 0.329
NCI-H2347; first compound 0.01 µM
  relative viability: 0.618
NCI-H2347; first compound 0.03162 µM
  relative viability: 0.599
NCI-H2347; first compound 0.1 µM
  relative viability: 0.538
NCI-H2347; first compound 0.3162 µM
  relative viability: 0.526
NCI-H2347; first compound 1 µM
  relative viability: 0.549
LXF-289; first compound 0.01 µM
  relative viability: 0.235
LXF-289; first compound 0.03162 µM
  relative viability: 0.216
LXF-289; first compound 0.1 µM
  relative viability: 0.218
LXF-289; first compound 0.3162 µM
  relative viability: 0.174
LXF-289; first compound 1 µM
  relative viability: 0.197
PC-3 [JPC-3]; first compound 0.01 µM
  relative viability: 0.855
PC-3 [JPC-3]; first compound 0.03162 µM
  relative viability: 0.884
PC-3 [JPC-3]; first compound 0.1 µM
  relative viability: 0.879
PC-3 [JPC-3]; first compound 0.3162 µM
  relative viability: 0.842
PC-3 [JPC-3]; first compound 1 µM
  relative viability: 0.852
NCI-H2126; first compound 0.01 µM
  relative viability: 0.781
NCI-H2126; first compound 0.03162 µM
  relative viability: 0.839
NCI-H2126; first compound 0.1 µM
  relative viability: 0.839
NCI-H2126; first compound 0.3162 µM
  relative viability: 0.794
NCI-H2126; first compound 1 µM
  relative viability: 0.789
LC-2-ad; first compound 0.01 µM
  relative viability: 0.486
LC-2-ad; first compound 0.03162 µM
  relative viability: 0.46
LC-2-ad; first compound 0.1 µM
  relative viability: 0.478
LC-2-ad; first compound 0.3162 µM
  relative viability: 0.443
LC-2-ad; first compound 1 µM
  relative viability: 0.445
NCI-H1734; first compound 0.01 µM
  relative viability: 0.236
NCI-H1734; first compound 0.03162 µM
  relative viability: 0.264
NCI-H1734; first compound 0.1 µM
  relative viability: 0.307
NCI-H1734; first compound 0.3162 µM
  relative viability: 0.259
NCI-H1734; first compound 1 µM
  relative viability: 0.243
NCI-H358; first compound 0.01 µM
  relative viability: 0.113
NCI-H358; first compound 0.03162 µM
  relative viability: 0.102
NCI-H358; first compound 0.1 µM
  relative viability: 0.115
NCI-H358; first compound 0.3162 µM
  relative viability: 0.0946
NCI-H358; first compound 1 µM
  relative viability: 0.101
